# From ChEMBL document CHEMBL5241069, “A key review on oxadiazole analogs as potential methicillin-resistant Staphylococcus aureus (MRSA) activity: Structure-activity relationship studies” (Eur J Med Chem, 2021)
# Key:
# Staphylococcus aureus [1] = assay: Antimicrobial activity against methicillin resistant Staphylococcus aureus C5382 assessed as inhibition of cell growth in the presence of oxacillin at 1/2 times of MIC by microdilution method; assay type: functional
# Staphylococcus aureus [2] = assay: Antimicrobial activity against methicillin resistant Staphylococcus aureus C5380 assessed as inhibition of cell growth in the presence of oxacillin at 1/2 times of MIC by microdilution method; assay type: functional
# Staphylococcus aureus [3] = assay: Antimicrobial activity against methicillin resistant Staphylococcus aureus C5171 assessed as inhibition of cell growth in the presence of oxacillin at 1/2 times of MIC by microdilution method; assay type: functional
# Staphylococcus aureus [4] = assay: Antimicrobial activity against methicillin resistant Staphylococcus aureus C3787 assessed as inhibition of cell growth in the presence of oxacillin at 1/2 times of MIC by microdilution method; assay type: functional
# Staphylococcus aureus [5] = assay: Antimicrobial activity against methicillin resistant Staphylococcus aureus C3212 assessed as inhibition of cell growth in the presence of oxacillin at 1/2 times of MIC by microdilution method; assay type: functional
# Staphylococcus aureus [6] = assay: Antimicrobial activity against methicillin resistant Staphylococcus aureus C5294 assessed as inhibition of cell growth in the presence of oxacillin at 1/2 times of MIC by microdilution method; assay type: functional
# Staphylococcus aureus [7] = assay: Antimicrobial activity against methicillin resistant Staphylococcus aureus C4058 assessed as inhibition of cell growth in the presence of oxacillin at 1/2 times of MIC by microdilution method; assay type: functional
# Staphylococcus aureus [8] = assay: Antimicrobial activity against methicillin resistant Staphylococcus aureus C5177 assessed as inhibition of cell growth in the presence of oxacillin at 1/2 times of MIC by microdilution method; assay type: functional
# Staphylococcus aureus [9] = assay: Antimicrobial activity against methicillin resistant Staphylococcus aureus K118 assessed as inhibition of cell growth in the presence of oxacillin at 1/4 times of MIC by microdilution method; assay type: functional
# Staphylococcus aureus [10] = assay: Antimicrobial activity against methicillin resistant Staphylococcus aureus C5282 assessed as inhibition of cell growth in the presence of oxacillin at 1/4 times of MIC by microdilution method; assay type: functional
# Staphylococcus aureus [11] = assay: Antimicrobial activity against methicillin resistant Staphylococcus aureus C5269 assessed as inhibition of cell growth in the presence of oxacillin at 1/4 times of MIC by microdilution method; assay type: functional
# Staphylococcus aureus [12] = assay: Antimicrobial activity against methicillin resistant Staphylococcus aureus C5382 assessed as inhibition of cell growth in the presence of oxacillin at 1/4 times of MIC by microdilution method; assay type: functional
# Staphylococcus aureus [13] = assay: Antimicrobial activity against methicillin resistant Staphylococcus aureus C5380 assessed as inhibition of cell growth in the presence of oxacillin at 1/4 times of MIC by microdilution method; assay type: functional
# Staphylococcus aureus [14] = assay: Antimicrobial activity against methicillin resistant Staphylococcus aureus C5171 assessed as inhibition of cell growth in the presence of oxacillin at 1/4 times of MIC by microdilution method; assay type: functional
# Staphylococcus aureus [15] = assay: Antimicrobial activity against methicillin resistant Staphylococcus aureus C3787 assessed as inhibition of cell growth in the presence of oxacillin at 1/4 times of MIC by microdilution method; assay type: functional
# Staphylococcus aureus [16] = assay: Antimicrobial activity against methicillin resistant Staphylococcus aureus C3212 assessed as inhibition of cell growth in the presence of oxacillin at 1/4 times of MIC by microdilution method; assay type: functional
# Staphylococcus aureus [17] = assay: Antimicrobial activity against methicillin resistant Staphylococcus aureus C5294 assessed as inhibition of cell growth in the presence of oxacillin at 1/4 times of MIC by microdilution method; assay type: functional
# Staphylococcus aureus [18] = assay: Antimicrobial activity against methicillin resistant Staphylococcus aureus C4058 assessed as inhibition of cell growth in the presence of oxacillin at 1/4 times of MIC by microdilution method; assay type: functional
# Staphylococcus aureus [19] = assay: Antimicrobial activity against methicillin resistant Staphylococcus aureus C5177 assessed as inhibition of cell growth in the presence of oxacillin at 1/4 times of MIC by microdilution method; assay type: functional
# Staphylococcus aureus [20] = assay: Antimicrobial activity against methicillin resistant Staphylococcus aureus K118 assessed as inhibition of cell growth in the presence of oxacillin at 1/8 times of MIC by microdilution method; assay type: functional
# Staphylococcus aureus [21] = assay: Antimicrobial activity against methicillin resistant Staphylococcus aureus C5282 assessed as inhibition of cell growth in the presence of oxacillin at 1/8 times of MIC by microdilution method; assay type: functional
# Staphylococcus aureus [22] = assay: Antimicrobial activity against methicillin resistant Staphylococcus aureus C5269 assessed as inhibition of cell growth in the presence of oxacillin at 1/8 times of MIC by microdilution method; assay type: functional
# Staphylococcus aureus [23] = assay: Antimicrobial activity against methicillin resistant Staphylococcus aureus C5382 assessed as inhibition of cell growth in the presence of oxacillin at 1/8 times of MIC by microdilution method; assay type: functional
# Staphylococcus aureus [24] = assay: Antimicrobial activity against methicillin resistant Staphylococcus aureus C5380 assessed as inhibition of cell growth in the presence of oxacillin at 1/8 times of MIC by microdilution method; assay type: functional
# Staphylococcus aureus [25] = assay: Antimicrobial activity against methicillin resistant Staphylococcus aureus C5171 assessed as inhibition of cell growth in the presence of oxacillin at 1/8 times of MIC by microdilution method; assay type: functional
# Staphylococcus aureus [26] = assay: Antimicrobial activity against methicillin resistant Staphylococcus aureus C3787 assessed as inhibition of cell growth in the presence of oxacillin at 1/8 times of MIC by microdilution method; assay type: functional
# Staphylococcus aureus [27] = assay: Antimicrobial activity against methicillin resistant Staphylococcus aureus C3212 assessed as inhibition of cell growth in the presence of oxacillin at 1/8 times of MIC by microdilution method; assay type: functional
# Staphylococcus aureus [28] = assay: Antimicrobial activity against methicillin resistant Staphylococcus aureus C5294 assessed as inhibition of cell growth in the presence of oxacillin at 1/8 times of MIC by microdilution method; assay type: functional
# Staphylococcus aureus [29] = assay: Antimicrobial activity against methicillin resistant Staphylococcus aureus C4058 assessed as inhibition of cell growth in the presence of oxacillin at 1/8 times of MIC by microdilution method; assay type: functional
# Staphylococcus aureus [30] = assay: Antimicrobial activity against methicillin resistant Staphylococcus aureus C5177 assessed as inhibition of cell growth in the presence of oxacillin at 1/8 times of MIC by microdilution method; assay type: functional
# Staphylococcus aureus [31] = assay: Antibacterial activity against methicillin resistant Staphylococcus aureus 42 assessed as inhibition of bacterial growth; assay type: functional
# Staphylococcus aureus [32] = assay: Antibacterial activity against methicillin resistant Staphylococcus aureus 128 assessed as inhibition of bacterial growth; assay type: functional
# Staphylococcus aureus [33] = assay: Antibacterial activity against methicillin resistant Staphylococcus aureus 181 assessed as inhibition of bacterial growth; assay type: functional
# Staphylococcus aureus [34] = assay: Antibacterial activity against methicillin resistant Staphylococcus aureus 747 assessed as inhibition of bacterial growth; assay type: functional
# Staphylococcus aureus [35] = assay: Potency index, ratio of cefepime MIC to test compound MIC for antibacterial activity against methicillin resistant Staphylococcus aureus 42 assessed as inhibition of bacterial growth; assay type: functional
# Staphylococcus aureus [36] = assay: Antibacterial activity against Staphylococcus aureus ATCC 29213 assessed as inhibition of bacterial growth by CLSI protocol based microdilution method; assay type: functional
# Staphylococcus aureus [37] = assay: Antibacterial activity against Staphylococcus aureus ATCC 27660 assessed as inhibition of bacterial growth by CLSI protocol based microdilution method; assay type: functional
# Staphylococcus aureus [38] = assay: Antibacterial activity against Staphylococcus aureus NRS100 (COL) assessed as inhibition of bacterial growth by CLSI protocol based microdilution method; assay type: functional
# Staphylococcus aureus [39] = assay: Antibacterial activity against Staphylococcus aureus NRS119 assessed as inhibition of bacterial growth by CLSI protocol based microdilution method; assay type: functional
# Staphylococcus aureus [40] = assay: Antibacterial activity against Staphylococcus aureus NRS120 assessed as inhibition of bacterial growth by CLSI protocol based microdilution method; assay type: functional
# Staphylococcus aureus [41] = assay: Antibacterial activity against vancomycin resistant Staphylococcus aureus 1 assessed as inhibition of bacterial growth by CLSI protocol based microdilution method; assay type: functional
# Staphylococcus aureus [42] = assay: Antibacterial activity against vancomycin resistant Staphylococcus aureus 2 assessed as inhibition of bacterial growth by CLSI protocol based microdilution method; assay type: functional
# [43] = Oral bioavailability in ICR mouse at 50 mg/kg; assay type: ADME, organism-based; conditions: in vivo
# [44] = Elimination half life in ICR mouse at 50 mg/kg, iv; assay type: ADME, organism-based; conditions: in vivo, read-out: beta t1/2 (converted)
compound,measurement,setting,value
FC(F)(F)c1ccc(Oc2ccc(-c3noc(-c4ccc5[nH]ccc5c4)n3)cc2)cc1,MIC,Staphylococcus aureus [1],≤ 0.03 µg/mL
same,MIC,Staphylococcus aureus [2],≤ 0.03 µg/mL
same,MIC,Staphylococcus aureus [3],≤ 0.03 µg/mL
same,MIC,Staphylococcus aureus [4],≤ 0.03 µg/mL
same,MIC,Staphylococcus aureus [5],≤ 0.03 µg/mL
same,MIC,Staphylococcus aureus [6],≤ 0.03 µg/mL
same,MIC,Staphylococcus aureus [7],≤ 0.03 µg/mL
same,MIC,Staphylococcus aureus [8],≤ 0.03 µg/mL
same,MIC,Staphylococcus aureus [9],≤ 0.03 µg/mL
same,MIC,Staphylococcus aureus [10],≤ 0.03 µg/mL
same,MIC,Staphylococcus aureus [11],≤ 0.03 µg/mL
same,MIC,Staphylococcus aureus [12],≤ 0.03 µg/mL
same,MIC,Staphylococcus aureus [13],≤ 0.03 µg/mL
same,MIC,Staphylococcus aureus [14],≤ 0.03 µg/mL
same,MIC,Staphylococcus aureus [15],≤ 0.03 µg/mL
same,MIC,Staphylococcus aureus [16],≤ 0.03 µg/mL
same,MIC,Staphylococcus aureus [17],≤ 0.03 µg/mL
same,MIC,Staphylococcus aureus [18],≤ 0.03 µg/mL
same,MIC,Staphylococcus aureus [19],≤ 0.03 µg/mL
same,MIC,Staphylococcus aureus [20],≤ 0.03 µg/mL
same,MIC,Staphylococcus aureus [21],≤ 0.03 µg/mL
same,MIC,Staphylococcus aureus [22],≤ 0.03 µg/mL
same,MIC,Staphylococcus aureus [23],≤ 0.03 µg/mL
same,MIC,Staphylococcus aureus [24],≤ 0.03 µg/mL
same,MIC,Staphylococcus aureus [25],≤ 0.03 µg/mL
same,MIC,Staphylococcus aureus [26],≤ 0.03 µg/mL
same,MIC,Staphylococcus aureus [27],≤ 0.03 µg/mL
same,MIC,Staphylococcus aureus [28],≤ 0.03 µg/mL
same,MIC,Staphylococcus aureus [29],≤ 0.03 µg/mL
same,MIC,Staphylococcus aureus [30],< 0.03 µg/mL
O=c1c(Br)cnc2onc(-c3ccc(F)cc3F)n12,MIC,Staphylococcus aureus [31],12.4 µg/mL
same,MIC,Staphylococcus aureus [32],17.6 µg/mL
same,MIC,Staphylococcus aureus [33],29.9 µg/mL
same,MIC,Staphylococcus aureus [34],29.9 µg/mL
same,Ratio,Staphylococcus aureus [35],3
Oc1ccc(-c2nc(-c3ccc(Oc4ccc(C(F)(F)F)cc4)cc3)no2)cc1,MIC,Staphylococcus aureus [36],2 µg/mL
same,MIC,Staphylococcus aureus [37],2 µg/mL
same,MIC,Staphylococcus aureus [38],2 µg/mL
same,MIC,Staphylococcus aureus [39],2 µg/mL
same,MIC,Staphylococcus aureus [40],2 µg/mL
same,MIC,Staphylococcus aureus [41],2 µg/mL
same,MIC,Staphylococcus aureus [42],2 µg/mL
same,bioavailability,[43],100%
same,half-life,[44],2400 min
